Assay results published in ChEMBL document CHEMBL3991601, “The target landscape of clinical kinase drugs” (Science, 2017).
Active and inactive are the calls of the source.

Tests used:
[1] = target: Cyclin-dependent kinase 4 (Homo sapiens, UniProt P11802)
[2] = target: Casein kinase I isoform alpha (Homo sapiens, UniProt P48729)
[3] = target: Deoxycytidine kinase (Homo sapiens, UniProt P27707)
[4] = target: Serine/threonine-protein kinase/endoribonuclease IRE2 (Homo sapiens, UniProt Q76MJ5)
[5] = target: T1, Mitogen-activated protein kinase kinase kinase 6 (Homo sapiens, UniProt O95382)
T1 sequence (O95382 whole entry): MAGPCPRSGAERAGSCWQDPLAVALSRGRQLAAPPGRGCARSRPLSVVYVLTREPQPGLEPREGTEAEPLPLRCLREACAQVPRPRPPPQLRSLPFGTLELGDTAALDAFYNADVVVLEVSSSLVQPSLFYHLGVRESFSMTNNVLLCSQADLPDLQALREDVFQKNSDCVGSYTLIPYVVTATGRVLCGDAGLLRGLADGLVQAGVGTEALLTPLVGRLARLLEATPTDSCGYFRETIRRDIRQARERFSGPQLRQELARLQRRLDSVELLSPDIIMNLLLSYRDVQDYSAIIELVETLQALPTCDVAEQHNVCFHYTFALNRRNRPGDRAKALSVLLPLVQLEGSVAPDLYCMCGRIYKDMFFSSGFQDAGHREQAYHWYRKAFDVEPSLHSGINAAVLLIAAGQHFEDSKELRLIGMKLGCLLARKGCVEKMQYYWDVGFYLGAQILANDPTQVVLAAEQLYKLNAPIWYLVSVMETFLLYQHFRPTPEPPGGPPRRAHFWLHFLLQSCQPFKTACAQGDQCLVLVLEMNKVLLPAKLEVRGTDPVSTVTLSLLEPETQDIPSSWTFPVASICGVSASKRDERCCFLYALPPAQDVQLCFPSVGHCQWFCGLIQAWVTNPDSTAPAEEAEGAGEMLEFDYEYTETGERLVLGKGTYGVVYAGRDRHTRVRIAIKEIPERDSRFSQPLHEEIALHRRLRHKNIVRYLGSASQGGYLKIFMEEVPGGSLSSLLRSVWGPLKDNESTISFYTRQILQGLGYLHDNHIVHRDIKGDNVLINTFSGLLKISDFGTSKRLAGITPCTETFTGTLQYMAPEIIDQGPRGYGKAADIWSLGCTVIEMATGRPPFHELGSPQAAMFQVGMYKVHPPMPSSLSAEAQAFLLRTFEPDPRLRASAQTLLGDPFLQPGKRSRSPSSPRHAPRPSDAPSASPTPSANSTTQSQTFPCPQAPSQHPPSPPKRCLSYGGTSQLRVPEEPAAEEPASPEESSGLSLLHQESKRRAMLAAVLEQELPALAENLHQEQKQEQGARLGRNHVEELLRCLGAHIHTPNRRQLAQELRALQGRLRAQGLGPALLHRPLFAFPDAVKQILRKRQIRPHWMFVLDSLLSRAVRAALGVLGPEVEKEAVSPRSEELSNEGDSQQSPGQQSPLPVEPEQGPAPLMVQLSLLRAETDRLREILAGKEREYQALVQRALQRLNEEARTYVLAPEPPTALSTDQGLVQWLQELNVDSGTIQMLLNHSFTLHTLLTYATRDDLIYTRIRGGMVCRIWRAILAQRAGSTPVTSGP

[6] = target: Mitogen-activated protein kinase kinase kinase kinase 4 (Homo sapiens, UniProt O95819)
Sequence of Mitogen-activated protein kinase kinase kinase kinase 4 (O95819 whole entry): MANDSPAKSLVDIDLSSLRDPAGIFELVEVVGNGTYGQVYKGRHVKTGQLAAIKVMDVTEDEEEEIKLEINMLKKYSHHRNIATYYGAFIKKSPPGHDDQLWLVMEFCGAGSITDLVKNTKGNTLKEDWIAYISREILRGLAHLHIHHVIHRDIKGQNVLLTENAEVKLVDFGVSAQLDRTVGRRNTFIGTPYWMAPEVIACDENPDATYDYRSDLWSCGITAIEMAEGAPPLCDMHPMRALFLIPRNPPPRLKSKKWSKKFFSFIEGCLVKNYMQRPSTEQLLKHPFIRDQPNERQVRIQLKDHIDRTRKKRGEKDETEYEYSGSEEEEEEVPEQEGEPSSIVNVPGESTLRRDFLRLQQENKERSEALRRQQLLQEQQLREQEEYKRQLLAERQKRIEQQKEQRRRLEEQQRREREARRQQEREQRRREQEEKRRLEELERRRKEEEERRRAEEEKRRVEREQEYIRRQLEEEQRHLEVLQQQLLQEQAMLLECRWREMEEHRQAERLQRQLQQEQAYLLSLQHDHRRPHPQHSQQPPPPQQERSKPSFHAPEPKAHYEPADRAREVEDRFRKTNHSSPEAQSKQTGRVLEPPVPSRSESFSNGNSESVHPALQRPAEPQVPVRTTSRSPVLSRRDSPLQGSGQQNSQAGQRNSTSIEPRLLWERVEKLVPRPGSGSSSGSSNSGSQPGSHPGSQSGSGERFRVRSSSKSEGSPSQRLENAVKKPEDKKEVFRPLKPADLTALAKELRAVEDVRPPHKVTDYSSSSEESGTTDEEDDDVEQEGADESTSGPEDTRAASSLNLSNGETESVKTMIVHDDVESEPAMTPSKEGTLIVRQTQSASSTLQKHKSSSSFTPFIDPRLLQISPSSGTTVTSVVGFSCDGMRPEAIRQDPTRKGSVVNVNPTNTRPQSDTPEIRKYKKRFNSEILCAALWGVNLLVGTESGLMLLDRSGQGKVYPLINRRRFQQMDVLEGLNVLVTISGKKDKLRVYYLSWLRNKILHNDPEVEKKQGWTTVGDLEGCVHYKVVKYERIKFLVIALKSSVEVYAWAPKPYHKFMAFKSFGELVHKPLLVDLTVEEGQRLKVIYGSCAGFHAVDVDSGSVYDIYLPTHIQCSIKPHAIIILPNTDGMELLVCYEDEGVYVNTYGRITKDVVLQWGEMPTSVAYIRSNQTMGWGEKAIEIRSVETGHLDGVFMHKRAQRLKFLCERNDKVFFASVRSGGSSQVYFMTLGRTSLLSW

[7] = target: T2, MAP/microtubule affinity-regulating kinase 4 (Homo sapiens, UniProt Q96L34)
T2 sequence (Q96L34 whole entry): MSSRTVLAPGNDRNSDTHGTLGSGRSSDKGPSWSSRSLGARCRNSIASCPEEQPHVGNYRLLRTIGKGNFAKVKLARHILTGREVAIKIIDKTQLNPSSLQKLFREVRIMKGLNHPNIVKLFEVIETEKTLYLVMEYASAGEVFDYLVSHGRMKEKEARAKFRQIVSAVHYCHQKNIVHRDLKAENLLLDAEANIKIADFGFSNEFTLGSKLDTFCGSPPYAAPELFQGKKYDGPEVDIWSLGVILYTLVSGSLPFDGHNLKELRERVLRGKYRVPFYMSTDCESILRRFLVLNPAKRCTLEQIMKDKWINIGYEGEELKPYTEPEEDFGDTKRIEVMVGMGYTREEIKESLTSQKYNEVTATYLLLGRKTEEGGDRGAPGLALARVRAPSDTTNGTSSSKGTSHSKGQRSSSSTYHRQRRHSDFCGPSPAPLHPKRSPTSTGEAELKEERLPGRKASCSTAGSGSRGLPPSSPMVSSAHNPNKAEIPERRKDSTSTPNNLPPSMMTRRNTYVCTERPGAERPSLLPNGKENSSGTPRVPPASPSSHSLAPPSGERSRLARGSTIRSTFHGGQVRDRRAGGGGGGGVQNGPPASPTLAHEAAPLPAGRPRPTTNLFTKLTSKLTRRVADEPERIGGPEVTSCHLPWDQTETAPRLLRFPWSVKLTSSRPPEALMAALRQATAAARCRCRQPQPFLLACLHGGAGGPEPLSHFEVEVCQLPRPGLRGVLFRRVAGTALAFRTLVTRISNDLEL

[8] = target: T3, NUAK family SNF1-like kinase 2 (Homo sapiens, UniProt Q9H093)
T3 sequence (Q9H093 whole entry): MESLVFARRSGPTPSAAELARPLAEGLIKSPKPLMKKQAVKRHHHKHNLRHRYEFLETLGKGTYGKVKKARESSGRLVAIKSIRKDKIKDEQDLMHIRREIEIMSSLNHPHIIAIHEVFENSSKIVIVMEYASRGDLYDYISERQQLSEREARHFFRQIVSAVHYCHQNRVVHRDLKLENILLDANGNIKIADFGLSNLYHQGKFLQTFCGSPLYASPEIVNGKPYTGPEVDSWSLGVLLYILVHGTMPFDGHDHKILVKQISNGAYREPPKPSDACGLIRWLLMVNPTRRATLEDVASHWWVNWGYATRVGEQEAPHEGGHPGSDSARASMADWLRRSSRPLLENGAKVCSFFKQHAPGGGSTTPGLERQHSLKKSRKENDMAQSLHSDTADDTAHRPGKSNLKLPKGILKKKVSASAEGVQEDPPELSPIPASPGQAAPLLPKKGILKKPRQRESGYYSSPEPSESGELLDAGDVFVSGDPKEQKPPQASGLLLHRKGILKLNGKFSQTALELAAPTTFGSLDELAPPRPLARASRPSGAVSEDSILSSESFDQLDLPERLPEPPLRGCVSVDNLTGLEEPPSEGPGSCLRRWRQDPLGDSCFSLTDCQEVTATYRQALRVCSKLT
Also: in the data inactive means no Kd found up to 30 µM.

Sequence of Casein kinase I isoform alpha (P48729 whole entry, canonical isoform): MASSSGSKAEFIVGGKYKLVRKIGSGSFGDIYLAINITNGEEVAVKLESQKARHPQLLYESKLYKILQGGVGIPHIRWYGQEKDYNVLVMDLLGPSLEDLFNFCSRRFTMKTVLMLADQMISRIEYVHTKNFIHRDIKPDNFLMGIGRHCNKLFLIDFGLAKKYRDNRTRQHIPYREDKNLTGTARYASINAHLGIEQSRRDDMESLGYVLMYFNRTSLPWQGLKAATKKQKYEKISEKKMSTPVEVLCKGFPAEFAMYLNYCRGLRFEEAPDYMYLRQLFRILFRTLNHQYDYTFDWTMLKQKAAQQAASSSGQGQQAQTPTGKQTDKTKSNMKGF
Sequence of Deoxycytidine kinase (P27707 whole entry): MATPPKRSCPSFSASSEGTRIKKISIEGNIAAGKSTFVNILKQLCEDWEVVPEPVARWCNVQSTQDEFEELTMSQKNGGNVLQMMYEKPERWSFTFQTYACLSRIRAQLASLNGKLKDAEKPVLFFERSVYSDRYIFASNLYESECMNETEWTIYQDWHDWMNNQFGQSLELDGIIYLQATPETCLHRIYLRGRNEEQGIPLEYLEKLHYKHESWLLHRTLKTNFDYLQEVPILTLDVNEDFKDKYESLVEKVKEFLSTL
Sequence of Serine/threonine-protein kinase/endoribonuclease IRE2 (Q76MJ5 whole entry): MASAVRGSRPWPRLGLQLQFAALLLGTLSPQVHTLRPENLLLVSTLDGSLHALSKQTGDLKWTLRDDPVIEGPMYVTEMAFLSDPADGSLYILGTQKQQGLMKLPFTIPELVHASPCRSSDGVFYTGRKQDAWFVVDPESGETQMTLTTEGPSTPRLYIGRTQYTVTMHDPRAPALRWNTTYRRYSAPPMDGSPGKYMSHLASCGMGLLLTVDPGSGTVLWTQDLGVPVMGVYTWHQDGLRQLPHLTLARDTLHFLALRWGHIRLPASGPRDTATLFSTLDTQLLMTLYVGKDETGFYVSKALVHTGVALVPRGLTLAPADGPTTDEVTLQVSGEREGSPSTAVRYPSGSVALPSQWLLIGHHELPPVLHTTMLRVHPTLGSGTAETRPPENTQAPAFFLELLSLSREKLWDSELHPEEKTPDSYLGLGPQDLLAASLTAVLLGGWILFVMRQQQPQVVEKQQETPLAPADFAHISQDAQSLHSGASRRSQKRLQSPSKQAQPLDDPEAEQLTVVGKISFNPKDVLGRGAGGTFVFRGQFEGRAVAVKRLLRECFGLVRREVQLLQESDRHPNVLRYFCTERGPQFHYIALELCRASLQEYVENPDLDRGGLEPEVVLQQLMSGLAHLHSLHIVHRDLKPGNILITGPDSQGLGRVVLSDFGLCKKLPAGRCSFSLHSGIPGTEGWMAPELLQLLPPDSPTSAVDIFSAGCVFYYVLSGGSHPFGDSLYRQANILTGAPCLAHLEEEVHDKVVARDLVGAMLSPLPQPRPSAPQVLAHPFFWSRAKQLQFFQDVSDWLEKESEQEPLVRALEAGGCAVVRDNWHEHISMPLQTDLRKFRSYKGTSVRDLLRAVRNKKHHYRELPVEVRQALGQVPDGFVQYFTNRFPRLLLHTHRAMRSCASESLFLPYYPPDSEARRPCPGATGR
Sequence of Cyclin-dependent kinase 4 (P11802 whole entry, canonical isoform): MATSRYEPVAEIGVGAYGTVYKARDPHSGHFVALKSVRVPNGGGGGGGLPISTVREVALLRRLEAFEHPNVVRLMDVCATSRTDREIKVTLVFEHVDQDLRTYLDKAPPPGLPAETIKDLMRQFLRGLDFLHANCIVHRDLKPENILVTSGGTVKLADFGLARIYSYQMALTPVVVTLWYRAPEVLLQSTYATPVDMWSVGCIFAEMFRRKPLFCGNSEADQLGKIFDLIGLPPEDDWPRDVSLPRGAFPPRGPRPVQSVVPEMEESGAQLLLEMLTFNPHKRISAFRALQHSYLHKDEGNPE

SMILES | Kd [1] | Kd [2] | Kd [3] | Kd [4] | Kd [5] | Kd [6] | Kd [7] | Kd [8]
COc1ncc(-c2ccc3nccc(-c4ccnnc4)c3c2)cc1NS(=O)(=O)c1ccc(F)cc1F [OMIPALISIB] | > 30 µM (inactive) | > 30 µM (inactive) | > 30 µM (inactive) | > 30 µM (inactive) | > 30 µM (inactive) | > 30 µM (inactive) | > 30 µM (inactive) | > 30 µM (inactive)
CCOc1cc2ncc(C#N)c(Nc3ccc(F)c(Cl)c3)c2cc1NC(=O)/C=C/CN(C)C [PELITINIB] | > 30 µM (inactive) | > 30 µM (inactive) | > 30 µM (inactive) | > 30 µM (inactive) | > 30 µM (inactive) | > 30 µM (inactive) | > 30 µM (inactive) | > 30 µM (inactive)
Cc1nc(Nc2n[nH]c3c2CN(C(=O)N[C@H](CN(C)C)c2ccccc2)C3(C)C)c2sccc2n1 [PF-03758309] | > 30 µM (inactive) | > 30 µM (inactive) | > 30 µM (inactive) | > 30 µM (inactive) | > 30 µM (inactive) | > 30 µM (inactive) | 0.029 µM (active) | > 30 µM (inactive)
Cc1cnc(NC(=O)Nc2cc(Br)c(C)cc2OC[C@@H]2CNCCO2)cn1 [RABUSERTIB] | > 30 µM (inactive) | > 30 µM (inactive) | > 30 µM (inactive) | > 30 µM (inactive) | > 30 µM (inactive) | > 30 µM (inactive) | > 30 µM (inactive) | > 30 µM (inactive)
CO[C@H]1C[C@@H]2CC[C@@H](C)[C@@](O)(O2)C(=O)C(=O)N2CCCC[C@H]2C(=O)O[C@H]([C@H](C)C[C@@H]2CC[C@@H](OP(C)(C)=O)[C@H](OC)C2)CC(=O)[C@H](C)/C=C(\C)[C@@H](O)[C@@H](OC)C(=O)[C@H](C)C[C@H](C)/C=C/C=C/C=C/1C [RIDAFOROLIMUS] | > 30 µM (inactive) | > 30 µM (inactive) | > 30 µM (inactive) | > 30 µM (inactive) | > 30 µM (inactive) | > 30 µM (inactive) | > 30 µM (inactive) | > 30 µM (inactive)
N#CC1(c2ccc(NC(=O)c3cccnc3NCc3ccncc3)cc2)CCCC1 [RIVOCERANIB] | > 30 µM (inactive) | > 30 µM (inactive) | > 30 µM (inactive) | > 30 µM (inactive) | > 30 µM (inactive) | > 30 µM (inactive) | > 30 µM (inactive) | > 30 µM (inactive)
O=c1[nH]ccc2cc(OC3CCNCC3)ccc12 [SAR-407899 FREE BASE] | > 30 µM (inactive) | > 30 µM (inactive) | > 30 µM (inactive) | > 30 µM (inactive) | > 30 µM (inactive) | > 30 µM (inactive) | > 30 µM (inactive) | > 30 µM (inactive)
CN1CCN(CCOc2cc(OC3CCOCC3)c3c(Nc4c(Cl)ccc5c4OCO5)ncnc3c2)CC1 [SARACATINIB] | > 30 µM (inactive) | > 30 µM (inactive) | > 30 µM (inactive) | > 30 µM (inactive) | > 30 µM (inactive) | 1.12 µM (active) | > 30 µM (inactive) | > 30 µM (inactive)
Cn1cc(-c2cnn3c(N)c(Br)c([C@@H]4CCCNC4)nc23)cn1 [SCH-900776] | > 30 µM (inactive) | > 30 µM (inactive) | > 30 µM (inactive) | > 30 µM (inactive) | > 30 µM (inactive) | > 30 µM (inactive) | > 30 µM (inactive) | > 30 µM (inactive)
CCS(=O)(=O)c1cccc(-c2cc(C(=O)NC3CCN(C)CC3)c(C)c3[nH]c4ncc(C)cc4c23)c1 [TAK-901] | > 30 µM (inactive) | > 30 µM (inactive) | > 30 µM (inactive) | > 30 µM (inactive) | > 30 µM (inactive) | > 30 µM (inactive) | 1.03 µM (active) | 0.705 µM (active)
CO[C@H]1C[C@@H]2CC[C@@H](C)[C@@](O)(O2)C(=O)C(=O)N2CCCC[C@H]2C(=O)O[C@H]([C@H](C)C[C@@H]2CC[C@@H](OC(=O)C(C)(CO)CO)[C@H](OC)C2)CC(=O)[C@H](C)/C=C(\C)[C@@H](O)[C@@H](OC)C(=O)[C@H](C)C[C@H](C)/C=C/C=C/C=C/1C [TEMSIROLIMUS] | > 30 µM (inactive) | > 30 µM (inactive) | > 30 µM (inactive) | > 30 µM (inactive) | > 30 µM (inactive) | > 30 µM (inactive) | > 30 µM (inactive) | > 30 µM (inactive)
COc1cc2c(Nc3ccc(Cl)c(Cl)c3F)ncnc2cc1OC[C@@H]1C[C@@H]2CN(C)C[C@@H]2C1 [TESEVATINIB] | > 30 µM (inactive) | > 30 µM (inactive) | > 30 µM (inactive) | > 30 µM (inactive) | > 30 µM (inactive) | 1.91 µM (active) | > 30 µM (inactive) | > 30 µM (inactive)
O=C(Cc1ccc(-c2ccc(OCCN3CCOCC3)cc2)cn1)NCc1ccccc1 [TIRBANIBULIN] | > 30 µM (inactive) | > 30 µM (inactive) | > 30 µM (inactive) | > 30 µM (inactive) | > 30 µM (inactive) | > 30 µM (inactive) | > 30 µM (inactive) | > 30 µM (inactive)
CC(C)c1cc(CNc2nc(Nc3cc(C4CC4)[nH]n3)cc(N3CCN(C)CC3)n2)on1 [XL-228] | > 30 µM (inactive) | > 30 µM (inactive) | > 30 µM (inactive) | > 30 µM (inactive) | > 30 µM (inactive) | > 30 µM (inactive) | > 30 µM (inactive) | > 30 µM (inactive)
